Reference: ChEMBL document CHEMBL1201862, “PubChem BioAssay data set” (2004)
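Briefly, cells in 96-well plates were exposed to five compound concentrations for 48 h, and endpoints were estimated by linear interpolation. The concentration for 50% growth inhibition is given as GI50.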 Calls of active or inactive are those of the source. Cut-off read from the data, not from the text of the source: active = GI50 up to about 1.1 µM and inactive = higher.

What was measured:
Assay in all cases: inhibition of tumour cell growth, NCI panel, 48 h
[1] = test system: HCT-15
[2] = test system: CAKI-1
[3] = test system: Malme-3M
[4] = test system: OVCAR-4
[5] = test system: DMS-114
[6] = test system: U-251
[7] = test system: NCI-H522
[8] = test system: M19-MEL
[9] = test system: HCC 2998
[10] = test system: UO-31
[11] = test system: NCI-H460
[12] = test system: SK-MEL-5
[13] = test system: A498
[14] = test system: SNB-19
[15] = test system: DLD-1
[16] = test system: LXFL 529
[17] = test system: IGROV-1
[18] = test system: SNB-75
[19] = test system: TK-10
[20] = test system: EKVX
[21] = test system: HL-60
[22] = test system: HCT-116
[23] = test system: HOP-92
[24] = test system: RPMI-8226
[25] = test system: KM-20L2
[26] = test system: SNB-78
[27] = test system: SK-MEL-28
[28] = test system: OVCAR-5
[29] = test system: SK-OV-3
[30] = test system: HOP-62
[31] = test system: MOLT-4
[32] = test system: OVCAR-8
[33] = test system: SN12C
[34] = test system: K562
[35] = test system: NCI-H23
[36] = test system: NCI-H226
[37] = test system: M14
[38] = test system: LOX IMVI
[39] = test system: SK-MEL-2
[40] = test system: SW-620
[41] = test system: RXF 393
[42] = test system: COLO 205
[43] = test system: ACHN
[44] = test system: SF-539
[45] = test system: SF-268
[46] = test system: A549
[47] = test system: 786-0
[48] = test system: UACC-62
[49] = test system: CCRF-CEM
[50] = test system: UACC-257
[51] = test system: SR
[52] = test system: KM12
[53] = test system: DMS-273
[54] = test system: SF-295
[55] = test system: OVCAR-3
[56] = test system: HT-29

SMILES: CC(=O)OC1CC2C(C)(C)C(=O)C=C[C@]2(C)C2CCC3(C)C(c4ccoc4)C(=O)[C@H]4O[C@]43[C@]12C (stereo partly drawn)
- GI50 [1]: 15.1 µM
- GI50 [2]: 20.3 µM (inactive)
- GI50 [3]: 16.1 µM (inactive)
- GI50 [4]: 22.3 µM (inactive)
- GI50 [5]: > 100 µM (inactive)
- GI50 [6]: 18.6 µM (inactive)
- GI50 [7]: 16.4 µM (inactive)
- GI50 [8]: 20.4 µM (inactive)
- GI50 [9]: 17.1 µM (inactive)
- GI50 [10]: 18.7 µM (inactive)
- GI50 [11]: 17.4 µM (inactive)
- GI50 [12]: 17.7 µM (inactive)
- GI50 [13]: 20.3 µM (inactive)
- GI50 [14]: 23.3 µM (inactive)
- GI50 [15]: 13.6 µM (inactive)
- GI50 [16]: 33.7 µM (inactive)
- GI50 [17]: 25.5 µM (inactive)
- GI50 [18]: 29.8 µM (inactive)
- GI50 [19]: 31.6 µM (inactive)
- GI50 [20]: 31.3 µM (inactive)
- GI50 [21]: 20.2 µM (inactive)
- GI50 [22]: 15.4 µM (inactive)
- GI50 [23]: 12.6 µM (inactive)
- GI50 [24]: 15.9 µM (inactive)
- GI50 [25]: > 10 µM (inactive)
- GI50 [26]: 57.8 µM (inactive)
- GI50 [27]: 15.5 µM (inactive)
- GI50 [28]: 26.7 µM (inactive)
- GI50 [29]: > 100 µM (inactive)
- GI50 [30]: 22.6 µM (inactive)
- GI50 [31]: 16 µM (inactive)
- GI50 [32]: 19.4 µM (inactive)
- GI50 [33]: 23.3 µM (inactive)
- GI50 [34]: 15.6 µM (inactive)
- GI50 [35]: 21.5 µM (inactive)
- GI50 [36]: 23.7 µM (inactive)
- GI50 [37]: 26.7 µM (inactive)
- GI50 [38]: 20 µM (inactive)
- GI50 [39]: 20.8 µM (inactive)
- GI50 [40]: 28.5 µM (inactive)
- GI50 [41]: 19.1 µM (inactive)
- GI50 [42]: > 100 µM (inactive)
- GI50 [43]: 17.9 µM (inactive)
- GI50 [44]: 20 µM (inactive)
- GI50 [45]: 38.9 µM (inactive)
- GI50 [46]: > 10 µM (inactive)
- GI50 [47]: 18.1 µM (inactive)
- GI50 [48]: 18 µM (inactive)
- GI50 [49]: 15.5 µM (inactive)

SMILES: CCCCc1c2c(nc3c1CC/C(=C\c1ccccc1)C3=O)CCCC2
- GI50 [1]: 3.3 µM
- GI50 [3]: 7.33 µM (inactive)
- GI50 [5]: 7.74 µM (inactive)
- GI50 [50]: 5.78 µM (inactive)
- GI50 [6]: 3.49 µM (inactive)
- GI50 [7]: 2.15 µM (inactive)
- GI50 [8]: 4.72 µM (inactive)
- GI50 [9]: 3.52 µM (inactive)
- GI50 [51]: 3.54 µM (inactive)
- GI50 [10]: 6.05 µM (inactive)
- GI50 [11]: 4.89 µM (inactive)
- GI50 [52]: 3.85 µM (inactive)
- GI50 [53]: 2.59 µM (inactive)
- GI50 [54]: 4.47 µM (inactive)
- GI50 [14]: 3.48 µM (inactive)
- GI50 [15]: 3.38 µM (inactive)
- GI50 [16]: 1.74 µM (inactive)
- GI50 [17]: 4.61 µM (inactive)
- GI50 [18]: 11 µM (inactive)
- GI50 [55]: 3.25 µM (inactive)
- GI50 [19]: 9.33 µM (inactive)
- GI50 [20]: 12.2 µM (inactive)
- GI50 [21]: 2.79 µM (inactive)
- GI50 [56]: 2.22 µM (inactive)
- GI50 [22]: 4.9 µM (inactive)
- GI50 [24]: 2.88 µM (inactive)
- GI50 [25]: 3.59 µM (inactive)
- GI50 [26]: 2.99 µM (inactive)
- GI50 [27]: 3.37 µM (inactive)
- GI50 [29]: 10.2 µM (inactive)
- GI50 [30]: 4.62 µM (inactive)
- GI50 [31]: 3.33 µM (inactive)
- GI50 [32]: 1.98 µM (inactive)
- GI50 [33]: 3.18 µM (inactive)
- GI50 [34]: 4.07 µM (inactive)
- GI50 [35]: 5.43 µM (inactive)
- GI50 [36]: > 10 µM (inactive)
- GI50 [37]: 4.91 µM (inactive)
- GI50 [38]: 1.76 µM (inactive)
- GI50 [40]: 1.99 µM (inactive)
- GI50 [41]: 2.6 µM (inactive)
- GI50 [42]: 7.48 µM (inactive)
- GI50 [43]: 12.1 µM (inactive)
- GI50 [44]: 2.29 µM (inactive)
- GI50 [45]: 3.49 µM (inactive)
- GI50 [46]: 12.3 µM (inactive)
- GI50 [47]: 2.33 µM (inactive)
- GI50 [48]: 2.72 µM (inactive)
- GI50 [49]: 3.43 µM (inactive)
